From the supplement of paper PMC11451515

Key:
Assay in all cases: AUC of viability dose-response curve (% viability x log10 dose units); higher = less sensitive
Conditions in all cases: 48 h
NOMO1 = test system: NOMO1
Procedure, shortened: (§1)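 Over 48 h at 37°C, leukemia cells in 1536-well plates (500 or 1000 cells/well), adapted to each medium, received library compounds in DMSO at 11 threefold doses from 47 μM to 0.79 nM. CellTiter-Glo One luminescence, normalised per plate to DMSO and cell-free wells, was fitted by a four-parameter log-logistic function of log10 dose. The area under the curve was then integrated by trapezoidal rule, after scaling curves above full viability and removing those that failed quality control.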

SEM cells = test system: SEM cells
Procedure, shortened: as §1

P12-Ichikawa = test system: P12-Ichikawa
Procedure, shortened: as §1

[1] = RPMI 5 mM glucose + 10% dialyzed FBS

Row | SMILES | AUC of viability dose-response curve (NOMO1; HPLM + 10% dialyzed FBS) | AUC of viability dose-response curve (NOMO1; RPMI 5 mM glucose + 10% FBS) | AUC of viability dose-response curve (NOMO1; [1]) | AUC of viability dose-response curve (SEM cells; HPLM + 10% dialyzed FBS) | AUC of viability dose-response curve (SEM cells; RPMI 5 mM glucose + 10% FBS) | AUC of viability dose-response curve (SEM cells; [1]) | AUC of viability dose-response curve (P12-Ichikawa; HPLM + 10% dialyzed FBS) | AUC of viability dose-response curve (P12-Ichikawa; RPMI 5 mM glucose + 10% FBS) | AUC of viability dose-response curve (P12-Ichikawa; [1])
1 | O=C(Nc1cc2cc[nH]c2cn1)c1ccccc1 | 366 | 385 | 401 | 359 | 335 | 364 | 360 | 414 | 386
2 | C[C@@H]1[C@H](O)[C@@H](C)/C=C/C=C/C=C/C=C/C=C/C=C/C=C/[C@H](O[C@@H]2O[C@H](C)[C@@H](O)[C@H](N)[C@@H]2O)C[C@@H]2O[C@](O)(C[C@@H](O)C[C@@H](O)[C@H](O)CC[C@@H](O)C[C@@H](O)CC(=O)O[C@H]1C)C[C@H](O)[C@H]2C(=O)O | 422 | 452 | 461 | 450 | 443 | 465 | 468 | 458 | 465
3 | NC/1=N/C2=C([NH]C=N2)C(=S)N1 | 457 | 451 | 402 | 458 | 457 | 345 | 441 | 433 | 409
4 | C[C@]1(c2nc3c(C(N)=O)cccc3[nH]2)CCCN1 | 368 | 349 | 374 | 372 | 393 | 352 | 399 | 353 | 356
5 | C/C=C(/C)C(=O)O[C@H]1C(C)=C[C@]23C(=O)[C@@H](C=C(CO)[C@@H](O)[C@]12O)[C@H]1[C@@H](C[C@H]3C)C1(C)C | 324 | 336 | 314 | 392 | 349 | 431 | 397 | 336 | 361
6 | CN[C@@H]1[C@H](O)[C@H](NC)[C@H]2O[C@@]3(O)C(=O)C[C@@H](C)O[C@H]3O[C@@H]2[C@H]1O | 438 | 424 | 467 | 465 | 445 | 458 | 457 | 450 | 446
7 | O=C(Nc1c(Cl)cncc1Cl)c1ccc(OC(F)F)c(OCC2CC2)c1 | 459 | 465 | 476 | 453 | 452 | 455 | 475 | 467 | 466
8 | C#C[C@]1(O)CC[C@H]2[C@@H]3CCc4cc(O)ccc4[C@H]3CC[C@@]21C | 444 | 442 | 429 | 442 | 440 | 448 | 441 | 418 | 410
9 | C[C@@]12C[C@@]3(O)O[C@@H](O1)[C@]1(COC(=O)c4ccccc4)[C@H]3C[C@@]12O[C@@H]1O[C@H](CO)[C@@H](O)[C@H](O)[C@H]1O | 436 | 463 | 463 | 456 | 454 | 463 | 469 | 467 | 469
10 | COc1ccc(C(C)=O)c(O)c1 | 350 | 366 | 381 | 439 | 450 | 462 | 422 | 421 | 423
11 | S=P(N1CC1)(N1CC1)N1CC1 | 468 | 458 | 468 | 455 | 446 | 441 | 452 | 470 | 448
12 | CCOC(=O)C/1=C(O)/C(=O)N(CC2=CC=CC=C2)C1 | 459 | 446 | 462 | 463 | 469 | 468 | 462 | 466 | 468
13 | O=C(O)C1=NC(C(=O)O)CC(/C=C/N2c3cc(O)c(OC4OC(CO)C(O)C(O)C4O)cc3CC2C(=O)O)=C1 (stereo not given) | 462 | 465 | 421 | 467 | 466 | 461 | 463 | 450 | 462
14 | OC1CCC(Nc2ncc3nc(Nc4c(F)cc(F)cc4F)n([C@@H]4CCOC4)c3n2)CC1 (stereo not given in full) | 465 | 446 | 448 | 474 | 452 | 458 | 468 | 465 | 468
15 | O=C(Nc1ccc(F)c(C(F)(F)F)c1)Nc1nnc(-c2ccncc2)s1 | 456 | 444 | 466 | 467 | 464 | 467 | 469 | 451 | 465
16 | CC1(C)O[C@@H]2C[C@H]3[C@@H]4CCC5=CC(=O)C=C[C@]5(C)[C@H]4[C@@H](O)C[C@]3(C)[C@]2(C(=O)CO)O1 | 474 | 445 | 454 | 313 | 353 | 318 | 391 | 357 | 331
17 | CCC(C)(Oc1ccc(C2(c3ccc(OC(C)(CC)C(=O)O)cc3)CCCCC2)cc1)C(=O)O (stereo not given) | 475 | 456 | 469 | 471 | 454 | 472 | 458 | 459 | 426
18 | COc1ccc(-c2nc(N3CCOCC3)c3sc(CN(C)c4ncc(C(=O)NO)cn4)cc3n2)cn1 | 156 | 169 | 166 | 136 | 113 | 144 | 163 | 162 | 172
19 | CNC1CCC(N(Cc2cccc(-c3ccncc3)c2)C(=O)c2sc3c(F)ccc(F)c3c2Cl)CC1 (stereo not given) | 453 | 470 | 466 | 455 | 464 | 445 | 467 | 466 | 463
20 | CN1\C(=C(\O)C2=CC=CC=C2[S+]1([O-])=O)C(=O)NC3=NC=C(C)S3 | 476 | 449 | 410 | 447 | 427 | 430 | 416 | 392 | 420
21 | COc1cc(OC)c(/C=C/[S+](=O)([O-])Cc2ccc(OC)c(NCC(=O)[O][Na])c2)c(OC)c1 | 315 | 309 | 278 | 287 | 269 | 249 | 271 | 269 | 257
22 | COc1ccc(-c2ccc3c(N4CCOC[C@@H]4C)nc(N4CCOC[C@@H]4C)nc3n2)cc1CO | 293 | 359 | 337 | 310 | 310 | 316 | 353 | 296 | 311
23 | CN1CCCN=C1/C=C/c1cccs1.O=C(O)c1cc2ccccc2c(Cc2c(O)c(C(=O)O)cc3ccccc23)c1O | 417 | 446 | 436 | 467 | 442 | 453 | 413 | 462 | 462
24 | CNc1nccc(-c2cccnc2Oc2cc(C(=O)Nc3cccc(C(F)(F)F)c3)ccc2C)n1 | 458 | 458 | 461 | 466 | 460 | 461 | 467 | 462 | 468
25 | Cc1cn(-c2cc(NC(=O)c3ccc(C)c(Nc4nccc(-c5cccnc5)n4)c3)cc(C(F)(F)F)c2)cn1 | 436 | 407 | 419 | 377 | 345 | 347 | 328 | 340 | 346
26 | COCCCN1CCC(NC(=O)c2cc(Cl)c(N)c3c2OCC3)CC1 | 460 | 456 | 468 | 453 | 451 | 454 | 465 | 467 | 473
27 | CCn1c(-c2nonc2N)nc2cnc(Oc3cccc(NC(=O)c4ccc(OCCN5CCOCC5)cc4)c3)cc21 | 456 | 432 | 429 | 457 | 442 | 456 | 446 | 427 | 438
28 | FC1=CC=C(SC/2=N/N3\C=N/C(=O)/C(=C3/C=C2)C4=C(Cl)C=CC=C4Cl)C(=C1)F | 457 | 463 | 466 | 409 | 435 | 398 | 454 | 436 | 452
29 | CCC(C)(C)c1ccc(CC(C)CN2C[C@@H](C)O[C@@H](C)C2)cc1 (stereo not given in full) | 422 | 368 | 397 | 356 | 369 | 398 | 424 | 417 | 380
30 | CC[C@H](C)[N]1C=C(C)C2=C1C=C(C=C2C(=O)NC\C3=C(C)\C=C(\C)NC3=O)C4=CC=C(N=C4)N5CCNCC5 | 469 | 475 | 467 | 474 | 472 | 463 | 476 | 468 | 474
